Like-named read-outs stand apart in the source and are kept apart here.
Key:
[1] = test system: thrombin; experiment: Inhibitory activity on thrombus formation: protection from lethal thrombin injection in mice; assay type: in vivo, mice (ddY strain); conditions: 10 minutes before thrombin 300 NIH units/kg i.v., No. 91 in 2.5% gum arabic
Procedure: White male mice (ddY strain), 4 weeks age and weighing 18-27 g, were used throughout the experiments. […] The intravenous injection of 300 NIH units/kg of thrombin over 30 seconds into mice was lethal to all animals. The compounds were intraperitoneally administered in doses of 1, 10, and 100 mg/kg in saline unless otherwise described.
Compounds were intraperitoneally administered 10 minutes before thrombin injection. Compound No. 91 was dissolved in 2.5% gum arabic.

[2] = test system: clotting activity of thrombin; experiment: Inhibitory activity on plasma clotting (rabbit platelet poor plasma, thrombin-induced); assay type: biochemical
Procedure: Blood was drawn from carotid artery of an ether anesthetized rabbit with 1/10 volume of 3.8% sodium citrate. Platelet poor plasma (PPP) was prepared from citrated blood which was centrifuged at 3,000 r.p.m. for 15 minutes at 4° C. PPP, 0.9 ml, was taken into cell, 10μ of a compound solution was added and incubated at 37° C. for 10 minutes. […] Compounds were dissolved in distilled water or 50% dimethyl sulfoxide (0.5% final concentration).

[3] = target: T1, Human Cl Esterase (Homo sapiens, UniProt P09871); experiment: Inhibitory effect on ester-hydrolyzing activity of human Cl esterase (ATEe substrate); assay type: biochemical; conditions: for IC50: in vitro, ATEe, pH 7.4, Table 4 bracketed value, read-out: Cl-esterase ID50
T1 sequence (P09871 438-688 limits assumed): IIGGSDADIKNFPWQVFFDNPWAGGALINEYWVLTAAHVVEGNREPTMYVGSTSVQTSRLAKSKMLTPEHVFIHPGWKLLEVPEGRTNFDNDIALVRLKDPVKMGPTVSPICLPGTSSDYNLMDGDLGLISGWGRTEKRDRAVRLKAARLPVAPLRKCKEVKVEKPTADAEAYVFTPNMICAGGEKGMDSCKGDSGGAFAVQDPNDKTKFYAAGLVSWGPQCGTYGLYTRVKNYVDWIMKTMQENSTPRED
T1 sequence (P09871 16-437 partner limits assumed): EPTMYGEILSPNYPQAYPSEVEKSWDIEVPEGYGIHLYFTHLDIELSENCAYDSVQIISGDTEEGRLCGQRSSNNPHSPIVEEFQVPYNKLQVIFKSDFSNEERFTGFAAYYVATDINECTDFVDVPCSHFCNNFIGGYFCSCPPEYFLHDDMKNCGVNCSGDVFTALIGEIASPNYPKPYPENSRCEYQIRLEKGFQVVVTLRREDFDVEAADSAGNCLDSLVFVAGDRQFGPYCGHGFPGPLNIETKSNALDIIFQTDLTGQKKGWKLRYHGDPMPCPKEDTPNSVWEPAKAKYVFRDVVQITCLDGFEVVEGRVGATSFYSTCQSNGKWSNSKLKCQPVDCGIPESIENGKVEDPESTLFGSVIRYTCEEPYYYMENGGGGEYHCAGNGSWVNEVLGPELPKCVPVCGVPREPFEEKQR

[4] = target: Human Plasma Kallikrein (Homo sapiens, UniProt P03952); experiment: Inhibitory effect on ester-hydrolyzing activity of human plasma kallikrein (TAMe substrate); assay type: biochemical; conditions: for IC50: Table 4 bracketed value, read-out: Kallikrein ID50
Procedure: (§1) The enzyme-inhibitory activities in vitro of the compounds of this invention were measured by the following procedure according to the method of M. Muramatsu et al. [[…]. […] After the incubation, 1.5 ml of 2 M alkaline hydroxylamine was added and thoroughly mixed, and allowed to stand at room temperature for 15 minutes.

[5] = target: Human Plasmin (Homo sapiens, UniProt P00747); experiment: Inhibitory effect on ester-hydrolyzing activity of human plasmin (TAMe substrate); assay type: biochemical; conditions: for inhibition at 1000 µM: read-out: Plasmin percent inhibition; for IC50: Table 4 bracketed value, read-out: Plasmin ID50
Procedure: The enzyme-inhibitory activities in vitro of the compounds of this invention were measured by the following procedure according to the method of M. Muramatsu et al. [[…]. […] After the incubation, 1.5 ml of 2 M alkaline hydroxylamine was added and thoroughly mixed, and allowed to stand at room temperature for 15 minutes. […] It was measured by using 0.1 ml of plasmin (generated by activation of plasminogen with streptokinase) and TAMe as substrate following the method described in (1).

[6] = Acute toxicity (LD50) by intraperitoneal administration in mice; conditions: mouse, in vivo, ip
[7] = target: Bovine Thrombin (Bos taurus, UniProt P00735); experiment: Inhibitory effect on ester-hydrolyzing activity of bovine thrombin (TAMe substrate); assay type: biochemical
Procedure: The enzyme-inhibitory activities in vitro of the compounds of this invention were measured by the following procedure according to the method of M. Muramatsu et al. [M. Muramatsu, T. Onishi, S. Makino, Y. Hayashi and S. Fujii: J. Biochem., 58, 214 (1965)]
To 0.1 ml of trypsin (5 μg/ml) were added 0.5 ml of 0.1 M borate buffer solution (pH 8.6) containing 10 mM CaCl2, and 0.1 ml of a varying concentration of an inhibitor solution, and preincubation was carried out at 37° C. for 5 minutes. Then, 10 μmoles of the substrate, TAMe (tosylarginine methyl ester), was added, and incubation was preformed at 37° C. for 30 minutes.
After the incubation, 1.5 ml of 2 M alkaline hydroxylamine was added and thoroughly mixed, and allowed to stand at room temperature for 15 minutes. Then, 1.0 ml of each of 18% trichloroacetic acid, 4 N HCl and 10% FeCl3 was added and thoroughly mixed. If necessary, the mixture was centrifuged at 3,000 rpm for 10 minutes, and the absorbance of the supernatant was measured at 530 nm.
It was measured by using 0.4 ml of bovine thrombin […], 0.02 M sodium phosphate buffer solution (pH 7.4) and TAMe as substrate following the method described in (1).

[8] = target: T2, Trypsin (Bos taurus, UniProt P00760); experiment: Inhibitory effect on ester-hydrolyzing activity of trypsin (TAMe substrate); assay type: biochemical; conditions: for inhibition at 1000 µM: read-out: Trypsin percent inhibition; for IC50: pH 8.6, 37° C., Table 4 bracketed value, read-out: Trypsin ID50
T2 sequence (P00760 24-246): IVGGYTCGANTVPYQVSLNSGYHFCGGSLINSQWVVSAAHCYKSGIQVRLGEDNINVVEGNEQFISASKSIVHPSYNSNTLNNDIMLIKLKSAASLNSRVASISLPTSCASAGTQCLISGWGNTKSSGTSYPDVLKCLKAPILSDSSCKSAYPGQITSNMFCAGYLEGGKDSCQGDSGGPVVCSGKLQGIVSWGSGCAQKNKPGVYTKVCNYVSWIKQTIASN
Procedure: as §1

Human Plasmin, sequence (P00747 581-810 limits assumed): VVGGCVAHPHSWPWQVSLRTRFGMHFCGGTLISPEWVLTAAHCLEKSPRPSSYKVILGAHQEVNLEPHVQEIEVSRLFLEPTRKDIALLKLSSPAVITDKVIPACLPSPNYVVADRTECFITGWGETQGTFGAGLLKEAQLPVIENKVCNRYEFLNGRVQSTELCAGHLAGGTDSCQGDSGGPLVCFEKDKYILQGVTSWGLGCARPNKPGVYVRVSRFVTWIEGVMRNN
Human Plasmin, sequence (P00747 97-580 partner limits assumed): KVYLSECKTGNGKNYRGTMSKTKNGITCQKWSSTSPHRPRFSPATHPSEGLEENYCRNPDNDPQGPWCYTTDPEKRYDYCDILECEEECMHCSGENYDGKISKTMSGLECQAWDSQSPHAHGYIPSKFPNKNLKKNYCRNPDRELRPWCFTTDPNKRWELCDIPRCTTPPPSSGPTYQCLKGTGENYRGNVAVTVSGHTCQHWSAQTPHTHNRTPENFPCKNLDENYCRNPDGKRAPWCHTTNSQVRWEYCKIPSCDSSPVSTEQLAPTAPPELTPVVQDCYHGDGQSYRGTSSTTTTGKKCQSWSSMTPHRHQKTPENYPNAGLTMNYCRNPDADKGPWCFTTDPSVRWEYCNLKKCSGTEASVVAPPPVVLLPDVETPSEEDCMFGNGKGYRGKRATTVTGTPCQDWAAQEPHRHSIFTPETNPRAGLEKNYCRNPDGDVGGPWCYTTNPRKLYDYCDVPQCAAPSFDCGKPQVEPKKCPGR
Human Plasma Kallikrein, sequence (P03952 391-638 limits assumed): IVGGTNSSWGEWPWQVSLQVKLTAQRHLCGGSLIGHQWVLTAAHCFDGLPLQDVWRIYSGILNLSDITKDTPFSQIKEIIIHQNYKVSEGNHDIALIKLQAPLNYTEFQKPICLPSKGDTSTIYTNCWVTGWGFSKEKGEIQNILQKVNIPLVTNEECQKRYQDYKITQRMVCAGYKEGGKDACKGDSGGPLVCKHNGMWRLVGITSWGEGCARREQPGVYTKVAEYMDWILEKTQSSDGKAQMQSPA
Human Plasma Kallikrein, sequence (P03952 20-390 partner limits assumed): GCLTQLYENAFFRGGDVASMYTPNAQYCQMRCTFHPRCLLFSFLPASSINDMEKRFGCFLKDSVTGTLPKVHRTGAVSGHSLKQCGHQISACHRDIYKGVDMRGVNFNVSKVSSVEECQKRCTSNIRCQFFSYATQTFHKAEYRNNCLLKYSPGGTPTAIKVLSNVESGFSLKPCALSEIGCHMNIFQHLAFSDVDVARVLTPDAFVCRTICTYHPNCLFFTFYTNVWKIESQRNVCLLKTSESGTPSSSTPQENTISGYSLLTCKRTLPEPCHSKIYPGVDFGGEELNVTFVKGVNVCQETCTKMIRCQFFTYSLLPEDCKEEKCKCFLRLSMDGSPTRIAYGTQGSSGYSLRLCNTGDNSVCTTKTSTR

| Structure (SMILES) | % protective ([1]; 1 mg/kg i.p.) | Survived / Tested ([1]; 1 mg/kg i.p.) | % protective ([1]; 10 mg/kg i.p.) | Survived / Tested ([1]; 10 mg/kg i.p.) | % protective ([1]; 100 mg/kg i.p.) | Survived / Tested ([1]; 100 mg/kg i.p.) | Percent inhibition of clotting activity ([2]; 3 × 10^-4 M, DMSO control) | Percent inhibition of clotting activity ([2]; 3 × 10^-5 M, DMSO control) | Percent inhibition of clotting activity ([2]; 10^-3 M, DMSO control) | Percent inhibition of clotting activity ([2]; 10^-4 M, DMSO control) | Percent inhibition of clotting activity ([2]; 10^-5 M, DMSO control) | IC50 [3] | LD50 [6] | IC50 ([5]; in vitro, TAMe) | IC50 [7] | IC50 ([8]; in vitro, TAMe) | IC50 ([4]; in vitro, TAMe) | Percent inhibition of clotting activity ([2]; 3 × 10^-5 M, H2O control) | Percent inhibition of clotting activity ([2]; 10^-4 M, H2O control) | Percent inhibition of clotting activity ([2]; 10^-5 M, H2O control) | other results |
| --- | --- | --- | --- | --- | --- | --- | --- | --- | --- | --- | --- | --- | --- | --- | --- | --- | --- | --- | --- | --- | --- |
| N=C(N)c1ccc(CC(=O)C(=O)O)cc1 [APPA-Na, sodium p-amidinophenyl pyruvate, reference compound] | 0% | 0/9 | 33% | 3/9 | 46% | 5/11 | 86.5% | -9.5% | 100.0% | 44.2% | -11.7% | – | – | – | – | – | – | – | – | – | – |
| N=C(N)Nc1cccc2c1CCCC2C(=O)Oc1ccc(Cl)cc1 (centres unmarked) [Compound 111] | – | – | – | – | – | – | – | – | – | – | – | 680 µM | 333 mg/kg | – | – | – | – | – | – | – | inhibition at 1000 µM ([4]; at 10^-3 M, in vitro, TAMe, read-out: Kallikrein percent inhibition): < 3.2%; inhibition at 1000 µM ([5]; at 10^-3 M, in vitro, TAMe): < 3.2%; inhibition at 1000 µM ([7]; at 10^-3 M, in vitro, TAMe, read-out: Thrombin percent inhibition): 18.6%; inhibition at 1000 µM ([8]; at 10^-3 M, in vitro, TAMe): 19% |
| COC(=O)c1ccc(OC(=O)C2CCCc3c(NC(=N)N)cccc32)cc1 (centres unmarked) [Compound 118] | 20% | 2/10 | 30% | 3/10 | 40% | 4/10 | – | – | – | – | – | 780 µM | 192 mg/kg | 1000 µM | 80 µM | 1000 µM | – | – | – | – | – |
| Cl.N=C(N)Nc1ccc2c(c1)C(C(=O)Oc1ccccc1)CCC2 (centres unmarked) [Compound 134, phenyl 7-guanidino-1,2,3,4-tetrahydro-1-naphthoate hydrochloride] | 0% | 0/9 | 10% | 1/10 | 70% | 7/10 | – | – | – | – | – | 370 µM | – | – | 27 µM | – | 290 µM | 11.1% | 42.2% | 13.3% | inhibitory activity on Cl-esterase ([3]; text of Examples): had an inhibitory activity; inhibitory activity on kallikrein ([4]; text of Examples): had an inhibitory activity; inhibition at 1000 µM [5]: < 3.2%; inhibitory activity on plasmin ([5]; text of Examples): no activity at all; inhibition at 1000 µM [8]: 40.6%; Percent inhibition of clotting activity ([2]; 3 × 10^-4 M, H2O control): 97.8%; Percent inhibition of clotting activity ([2]; 10^-3 M, H2O control): 100% |
| N=C(N)Nc1ccc2c(c1)C(C(=O)Oc1ccc(Cl)cc1)CCC2 (centres unmarked) [Compound 137] | – | – | – | – | – | – | – | – | – | – | – | 250 µM | – | 1000 µM | 45 µM | 78 µM | 120 µM | 10.0% | 2.0% | -5.0% | – |
| CCCCOc1ccc(OC(=O)C2CCCc3ccc(NC(=N)N)cc32)cc1 (centres unmarked) [Compound 142] | – | – | – | – | – | – | 13.0% | -3.0% | 61.0% | 0.0% | -5.0% | 460 µM | – | 360 µM | 24 µM | – | 76 µM | – | – | – | inhibition at 1000 µM [8]: 36.9% |
| COC(=O)c1ccc(OC(=O)C2CCCc3ccc(NC(=N)N)cc32)cc1 (centres unmarked) [Compound 144] | – | – | – | – | – | – | 57.3% | 1.7% | 98.1% | 58.0% | -3.6% | 310 µM | 192 mg/kg | 45 µM | 19 µM | 14 µM | – | – | – | – | – |
| CCOC(=O)c1ccc(OC(=O)C2CCCc3ccc(NC(=N)N)cc32)cc1 (centres unmarked) [Compound 148] | 0% | 0/10 | 30% | 3/10 | 90% | 9/10 | – | – | – | – | – | 260 µM | 92 mg/kg | 140 µM | 6 µM | 150 µM | 170 µM | 20.0% | 6.7% | -2.2% | Percent inhibition of clotting activity ([2]; 3 × 10^-4 M, H2O control): 55.6%; Percent inhibition of clotting activity ([2]; 10^-3 M, H2O control): 100% |

Source: US4214093A, “Amino- or guanidino-1,2,3,4-tetrahydro-1-naphthoic esters” (Torii & Co., Ltd., priority 1977, dated 1980)
